Reference: patent US20260345517A1, “DOSAGE REGIMENS FOR TREATING STARGARDT DISEASE” (Alkeus Pharmaceuticals, Inc., priority 2024, published 2026)

Experiment: TEASE-1: safety and adverse events
Format: in vivo, human
Experimental: The Tolerability and Effects of gildeuretinol acetate in Stargardt Disease (Clinical trial group 1 also known as TEASE-1) was a 24-month, multicenter, double-masked, placebo-controlled trial designed to evaluate the efficacy and safety of daily oral gildeuretinol acetate in slowing the growth of atrophic retinal lesions in Stargardt disease patients. The trial was conducted at multiple sites in the United States (NCT02402660).
Patients 12 years or older, clinically diagnosed with Stargardt disease, with at least one ABCA4 mutation, at least one eye presenting with well-demarcated areas of reduced fundus autofluorescence, and with any visual acuity, were eligible.
Patients were randomized to gildeuretinol acetate 14 mg capsules, gildeuretinol acetate 24 mg capsules, or placebo capsules, to be taken once daily for one year. After one year, 50% of randomly selected patients receiving placebo were crossed over in a 1:1 ratio to gildeuretinol acetate 14 mg capsules or gildeuretinol acetate 24 mg capsules for a second year.
Gildeuretinol acetate and placebo capsules were identical appearing capsules. Patients were advised to avoid vitamin A-containing supplements and liver-based products. Fruits and vegetables contain beta-carotene, not preformed vitamin A, and could be consumed without limitation. Trial visits occurred at 8 weeks and 6, 12, 18, and 24 months following screening and randomization.

Compound: CC(=O)OC/C=C(C)/C=C/C=C(C)/C=C/C1=C(C)CCCC1(C)C [gildeuretinol acetate, C20-D3-retinol acetate]
- changes by physical examination, electrocardiogram, vital signs, hematology, biochemistry and lipid panels (14 mg and 24 mg): no changes were attributed to gildeuretinol acetate
- changes in visual acuity (14 mg and 24 mg): No changes in visual acuity were observed
- discontinuation due to side effects (14 mg and 24 mg): no patient discontinued treatment due to side effects
- serious adverse events (14 mg and 24 mg): No serious adverse events
- severity of adverse events (14 mg and 24 mg): mild or moderate
- association between treatment groups and frequency of adverse events (14 mg and 24 mg vs placebo): no association was observed
- Abdominal discomfort (14 mg, N = 15): 0 patients (%)
- Abdominal distension (14 mg, N = 15): 0 patients (%)
- Abdominal pain upper (14 mg, N = 15): 0 patients (%)
- Abnormal dreams (14 mg, N = 15): 0 patients (%)
- Adverse events, Overall (14 mg, N = 15): 12 (80) patients (%)
- Alanine aminotransferase increased (14 mg, N = 15): 1 (6.7) patients (%)
- Alopecia (14 mg, N = 15): 2 (13.3) patients (%)
- Ankle fracture (14 mg, N = 15): 1 (6.7) patients (%)
- Arthralgia (14 mg, N = 15): 1 (6.7) patients (%)
- Arthritis (14 mg, N = 15): 0 patients (%)
- Aspartate aminotransferase increased (14 mg, N = 15): 1 (6.7) patients (%)
- Back injury (14 mg, N = 15): 0 patients (%)
- Back pain (14 mg, N = 15): 0 patients (%)
- Blepharospasm (14 mg, N = 15): 0 patients (%)
- Blood cholesterol increased (14 mg, N = 15): 0 patients (%)
- Blood creatinine increased (14 mg, N = 15): 1 (6.7) patients (%)
- Blood iron decreased (14 mg, N = 15): 0 patients (%)
- Blood pressure increased (14 mg, N = 15): 0 patients (%)
- Blood triglycerides increased (14 mg, N = 15): 1 (6.7) patients (%)
- Bowel movement irregularity (14 mg, N = 15): 0 patients (%)
- Bronchitis (14 mg, N = 15): 0 patients (%)
- Cartilage injury (14 mg, N = 15): 1 (6.7) patients (%)
- Conjunctival laceration (14 mg, N = 15): 0 patients (%)
- Conjunctivitis (14 mg, N = 15): 1 (6.7) patients (%)
- Constipation (14 mg, N = 15): 0 patients (%)
- Cough (14 mg, N = 15): 0 patients (%)
- Death (14 mg, N = 15): 1 (6.7) patients (%)
- Depression (14 mg, N = 15): 1 (6.7) patients (%)
- Diarrhoea (14 mg, N = 15): 1 (6.7) patients (%)
- Diplopia (14 mg, N = 15): 0 patients (%)
- Dry eye (14 mg, N = 15): 0 patients (%)
- Dry mouth (14 mg, N = 15): 1 (6.7) patients (%)
- Dry skin (14 mg, N = 15): 0 patients (%)
- Ear discomfort (14 mg, N = 15): 0 patients (%)
- Ear infection (14 mg, N = 15): 0 patients (%)
- Ear pain (14 mg, N = 15): 0 patients (%)
- Eczema (14 mg, N = 15): 0 patients (%)
- Electrocardiogram abnormal (14 mg, N = 15): 0 patients (%)
- Erythema (14 mg, N = 15): 0 patients (%)
- Eye irritation (14 mg, N = 15): 1 (6.7) patients (%)
- Eye pain (14 mg, N = 15): 0 patients (%)
- Eye pruritus (14 mg, N = 15): 0 patients (%)
- Face injury (14 mg, N = 15): 1 (6.7) patients (%)
- Faeces soft (14 mg, N = 15): 1 (6.7) patients (%)
- Fall (14 mg, N = 15): 1 (6.7) patients (%)
- Gastroenteritis (14 mg, N = 15): 1 (6.7) patients (%)
- Gastroenteritis viral (14 mg, N = 15): 0 patients (%)
- Hair texture abnormal (14 mg, N = 15): 0 patients (%)
- Hand fracture (14 mg, N = 15): 1 (6.7) patients (%)
- Headache (14 mg, N = 15): 1 (6.7) patients (%)
- Herpes zoster (14 mg, N = 15): 1 (6.7) patients (%)
- Hordeolum (14 mg, N = 15): 0 patients (%)
- Hypertension (14 mg, N = 15): 0 patients (%)
- Hypobarism (14 mg, N = 15): 0 patients (%)
- Hypothyroidism (14 mg, N = 15): 0 patients (%)
- Hysterectomy (14 mg, N = 15): 0 patients (%)
- Inflammation (14 mg, N = 15): 0 patients (%)
- Influenza (14 mg, N = 15): 0 patients (%)
- Insomnia (14 mg, N = 15): 1 (6.7) patients (%)
- Intracranial pressure increased (14 mg, N = 15): 0 patients (%)
- Irritability (14 mg, N = 15): 0 patients (%)
- Jaw operation (14 mg, N = 15): 0 patients (%)
- Knee arthroplasty (14 mg, N = 15): 1 (6.7) patients (%)
- Laryngitis (14 mg, N = 15): 1 (6.7) patients (%)
- Lip swelling (14 mg, N = 15): 0 patients (%)
- Low density lipoprotein increased (14 mg, N = 15): 1 (6.7) patients (%)
- Muscle spasms (14 mg, N = 15): 1 (6.7) patients (%)
- Muscle strain (14 mg, N = 15): 0 patients (%)
- Musculoskeletal pain (14 mg, N = 15): 1 (6.7) patients (%)
- Nasopharyngitis (14 mg, N = 15): 2 (13.3) patients (%)
- Nausea (14 mg, N = 15): 0 patients (%)
- Neck pain (14 mg, N = 15): 0 patients (%)
- Nephrolithiasis (14 mg, N = 15): 1 (6.7) patients (%)
- Nerve compression (14 mg, N = 15): 0 patients (%)
- Neuralgia (14 mg, N = 15): 1 (6.7) patients (%)
- Obsessive-compulsive disorder (14 mg, N = 15): 0 patients (%)
- Oropharyngeal pain (14 mg, N = 15): 0 patients (%)
- Osteoporosis (14 mg, N = 15): 0 patients (%)
- Pain (14 mg, N = 15): 2 (13.3) patients (%)
- Pain in extremity (14 mg, N = 15): 1 (6.7) patients (%)
- Pain in jaw (14 mg, N = 15): 0 patients (%)
- Peripheral coldness (14 mg, N = 15): 0 patients (%)
- Pharyngitis streptococcal (14 mg, N = 15): 1 (6.7) patients (%)
- Photophobia (14 mg, N = 15): 1 (6.7) patients (%)
- Photopsia (14 mg, N = 15): 1 (6.7) patients (%)
- Plantar fasciitis (14 mg, N = 15): 1 (6.7) patients (%)
- Pleurisy (14 mg, N = 15): 0 patients (%)
- Pneumonia (14 mg, N = 15): 0 patients (%)
- Premenstrual syndrome (14 mg, N = 15): 0 patients (%)
- Punctate keratitis (14 mg, N = 15): 1 (6.7) patients (%)
- Pyrexia (14 mg, N = 15): 0 patients (%)
- Radius fracture (14 mg, N = 15): 1 (6.7) patients (%)
- Rash (14 mg, N = 15): 1 (6.7) patients (%)
- Rotator cuff syndrome (14 mg, N = 15): 0 patients (%)
- Sialoadenitis (14 mg, N = 15): 1 (6.7) patients (%)
- Sinus congestion (14 mg, N = 15): 0 patients (%)
- Sinusitis (14 mg, N = 15): 1 (6.7) patients (%)
- Sjogren's syndrome (14 mg, N = 15): 1 (6.7) patients (%)
- Skin infection (14 mg, N = 15): 0 patients (%)
- Subdural haematoma (14 mg, N = 15): 1 (6.7) patients (%)
- Syncope (14 mg, N = 15): 0 patients (%)
- Tendonitis (14 mg, N = 15): 1 (6.7) patients (%)
- Thoracic outlet syndrome (14 mg, N = 15): 0 patients (%)
- Tongue dry (14 mg, N = 15): 1 (6.7) patients (%)
- Tooth abscess (14 mg, N = 15): 0 patients (%)
- Tooth extraction (14 mg, N = 15): 0 patients (%)
- Toothache (14 mg, N = 15): 0 patients (%)
- Upper respiratory tract infection (14 mg, N = 15): 1 (6.7) patients (%)
- Vision blurred (14 mg, N = 15): 1 (6.7) patients (%)
- Visual field defect (14 mg, N = 15): 0 patients (%)
- Visual impairment (14 mg, N = 15): 1 (6.7) patients (%)
- Vitamin B12 deficiency (14 mg, N = 15): 1 (6.7) patients (%)
- Vitamin D decreased (14 mg, N = 15): 2 (13.3) patients (%)
- Vitreous floaters (14 mg, N = 15): 1 (6.7) patients (%)
- Vulvovaginal candidiasis (14 mg, N = 15): 0 patients (%)
- Wrist fracture (14 mg, N = 15): 0 patients (%)
- Xanthelasma (14 mg, N = 15): 0 patients (%)
- blurred optic disc margins with transient visual obscuration (24 mg, 12-month visit, ocular exam): observed in one patient
- Abdominal discomfort (24 mg, N = 15): 1 (6.7) patients (%)
- Abdominal distension (24 mg, N = 15): 1 (6.7) patients (%)
- Abdominal pain upper (24 mg, N = 15): 1 (6.7) patients (%)
- Abnormal dreams (24 mg, N = 15): 1 (6.7) patients (%)
- Adverse events, Overall (24 mg, N = 15): 13 (86.7) patients (%)
- Alanine aminotransferase increased (24 mg, N = 15): 0 patients (%)
- Alopecia (24 mg, N = 15): 0 patients (%)
- Ankle fracture (24 mg, N = 15): 0 patients (%)
- Arthralgia (24 mg, N = 15): 1 (6.7) patients (%)
- Arthritis (24 mg, N = 15): 0 patients (%)
- Aspartate aminotransferase increased (24 mg, N = 15): 0 patients (%)
- Back injury (24 mg, N = 15): 0 patients (%)
- Back pain (24 mg, N = 15): 1 (6.7) patients (%)
- Blepharospasm (24 mg, N = 15): 0 patients (%)
- Blood cholesterol increased (24 mg, N = 15): 1 (6.7) patients (%)
- Blood creatinine increased (24 mg, N = 15): 0 patients (%)
- Blood iron decreased (24 mg, N = 15): 1 (6.7) patients (%)
- Blood pressure increased (24 mg, N = 15): 1 (6.7) patients (%)
- Blood triglycerides increased (24 mg, N = 15): 0 patients (%)
- Bowel movement irregularity (24 mg, N = 15): 1 (6.7) patients (%)
- Bronchitis (24 mg, N = 15): 0 patients (%)
- Cartilage injury (24 mg, N = 15): 0 patients (%)
- Conjunctival laceration (24 mg, N = 15): 1 (6.7) patients (%)
- Conjunctivitis (24 mg, N = 15): 0 patients (%)
- Constipation (24 mg, N = 15): 1 (6.7) patients (%)
- Cough (24 mg, N = 15): 2 (13.3) patients (%)
- Death (24 mg, N = 15): 0 patients (%)
- Depression (24 mg, N = 15): 0 patients (%)
- Diarrhoea (24 mg, N = 15): 0 patients (%)
- Diplopia (24 mg, N = 15): 1 (6.7) patients (%)
- Dry eye (24 mg, N = 15): 1 (6.7) patients (%)
- Dry mouth (24 mg, N = 15): 0 patients (%)
- Dry skin (24 mg, N = 15): 1 (6.7) patients (%)
- Ear discomfort (24 mg, N = 15): 1 (6.7) patients (%)
- Ear infection (24 mg, N = 15): 0 patients (%)
- Ear pain (24 mg, N = 15): 0 patients (%)
- Eczema (24 mg, N = 15): 0 patients (%)
- Electrocardiogram abnormal (24 mg, N = 15): 0 patients (%)
- Erythema (24 mg, N = 15): 0 patients (%)
- Eye irritation (24 mg, N = 15): 0 patients (%)
- Eye pain (24 mg, N = 15): 1 (6.7) patients (%)
- Eye pruritus (24 mg, N = 15): 1 (6.7) patients (%)
- Face injury (24 mg, N = 15): 0 patients (%)
- Faeces soft (24 mg, N = 15): 0 patients (%)
- Fall (24 mg, N = 15): 1 (6.7) patients (%)
- Gastroenteritis (24 mg, N = 15): 0 patients (%)
- Gastroenteritis viral (24 mg, N = 15): 1 (6.7) patients (%)
- Hair texture abnormal (24 mg, N = 15): 0 patients (%)
- Hand fracture (24 mg, N = 15): 0 patients (%)
- Headache (24 mg, N = 15): 2 (13.3) patients (%)
- Herpes zoster (24 mg, N = 15): 0 patients (%)
- Hordeolum (24 mg, N = 15): 1 (6.7) patients (%)
- Hypertension (24 mg, N = 15): 1 (6.7) patients (%)
- Hypobarism (24 mg, N = 15): 1 (6.7) patients (%)
- Hypothyroidism (24 mg, N = 15): 1 (6.7) patients (%)
- Hysterectomy (24 mg, N = 15): 1 (6.7) patients (%)
